# Assay results published in patent US8193252B1, “Mesoprogestins (progesterone receptor modulators) for the treatment and prevention of benign hormone dependent gynecological disorders” (Bayer Pharma AG, priority 1999, dated 2012).
# Legend:
# [1] = system: endometriosis; assay: Sequential treatment of endometriosis with an LHRH agonist and J867; type: in vivo, human
# Experimental: Women with endometriosis are treated for 2-3 months with an LHRH agonist such as Lupron. After the cessation of LHRH-agonist therapy women are treated for the next 3-6 months with J 867 in order to avoid osteoprorosis induced by prolonged treatment with LHRH agonist. During treatment with 5-50 mg J 867 the therapeutic effects of the LHRH-agonist are maintained.
# [2] = system: cyclic guinea pigs; conditions: cited from earlier work
# [3] = system: endometriosis; assay: Treatment of endometriosis in women; type: in vivo, human; conditions: women with endometriosis, 3-6 months, 5-50 mg
# [4] = as described in DE 43 32 283 / DE 43 32 284; cited from earlier work
# [5] = as described in DE 43 32 283 / DE 43 32 284; cited from earlier work; remark: listed apart in the source
# [6] = system: uterine fibroids; assay: Treatment of uterine fibroids (Example 5); type: in vivo, human; conditions: 3-6 months, 5-50 mg
smiles,measurement,setting,value
"COC[C@]1(OC)CC[C@H]2[C@@H]3CCC4=CC(=O)CCC4=C3[C@@H](c3ccc(/C=N/O)cc3)C[C@@]21C [J867, 4-[17β-Methoxy-17α-(methoxymethyl)-3-oxoestra-4,9-dien-11β-yl]benzaldehyd-(1E)-oxim]",therapeutic effects of the LHRH-agonist during following treatment,[1]; 5-50 mg for 3-6 months after 2-3 months LHRH agonist,maintained
same,estrogen deficiency,[1]; women with endometriosis,does not produce estrogen deficiency
same,uterine weights,[2],reduced uterine weights
same,pelvic pain during treatment,[3],reduction of pelvic pain was observed
same,antiglucocorticoid activity compared to RU 486,[4],markedly reduced
same,antiprogestagenic activity,[5],strong
same,pelvic pain during treatment,[6],reduction of pelvic pain was observed
